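Cells were grown in 96-well plates and exposed to each compound for 48 hours at five concentrations; endpoints were interpolated linearly between bracketing concentrations, or set to the highest concentration if not reached. The concentration for full growth arrest is given as TGI.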
Assays:
Experiment in all cases: growth of human tumour cells (NCI), 48 h
[1] = tested on: RPMI-8226 leukemia
[2] = tested on: COLO 205 colon
[3] = tested on: BT-549 breast
[4] = tested on: UACC-62 melanoma
[5] = tested on: DU-145 prostate
[6] = tested on: KM12 colon
[7] = tested on: OVCAR-3 ovarian
[8] = tested on: SNB-75 CNS
[9] = tested on: MOLT-4 leukemia
[10] = tested on: HCT-15 colon
[11] = tested on: M14 melanoma
[12] = tested on: OVCAR-8 ovarian
[13] = tested on: OVCAR-4 ovarian
[14] = tested on: SK-MEL-5 melanoma
[15] = tested on: SF-295 CNS
[16] = tested on: SK-MEL-2 melanoma
[17] = tested on: K-562 leukemia
[18] = tested on: SK-OV-3 ovarian

Measured: TGI

CC(C)(C)OC(=O)N1CCC(C(=O)O)CC1
> 100 µM: [1] | [2] | [3] | [4] | [5] | [6] | [7] | [8] | [9] | [10] | [11] | [12] | [13] | [14] | [15] | [16]

COc1cc2c(cc1OC)C(=O)/C(=C/c1ccc(Cl)cc1)CC2
> 10 µM: [1] | [2] | [3] | [4] | [5] | [6] | [7] | [9] | [17] | [10] | [18] | [11] | [12] | [13] | [14] | [15] | [16]

CCCCCCC(=O)O[C@H]1CC[C@H]2[C@@H]3CCC4C/C(=N/NC(=O)c5cccc6c(=O)c7ccccc7[nH]c56)C=C(C)[C@]4(C)[C@H]3CC[C@]12C (stereo not given in full)
> 25 µM: [1] | [2] | [3] | [4] | [5] | [6] | [7] | [8] | [9] | [17] | [10] | [18] | [11] | [12] | [13] | [14] | [15] | [16]

NC(=O)c1cc2ccc(O)cc2oc1=Nc1ccccc1
> 100 µM: [3] | [4] | [5] | [6] | [7] | [17] | [10] | [18] | [11] | [12] | [13] | [15]
63.8 µM: [1]
69 µM: [14]
44 µM: [2]
53 µM: [16]
88.8 µM: [9]
68.3 µM: [8]

O=c1c2nc3ccccc3c(=O)n2ncn1-c1ccccc1Cl
> 100 µM: [1] | [2] | [3] | [4] | [5] | [6] | [7] | [8] | [17] | [10] | [18] | [11] | [12] | [13] | [14] | [15] | [16]

CC(=O)OCC1OC(c2nc3ccccc3s2)=CC(OC(C)=O)C1OC(C)=O (stereo not given)
> 100 µM: [1] | [2] | [3] | [5] | [6] | [7] | [8] | [17] | [12] | [13] | [14] | [15]

O=C(c1ccc(Cl)cc1)N(C(=O)N1CCC(c2ccccc2)CC1)c1ccccc1
88.2 µM: [11]
52.3 µM: [1]
35.2 µM: [14]
> 100 µM: [2] | [4] | [5] | [7] | [17] | [10] | [18] | [12] | [15] | [16]
73.6 µM: [3]
44.6 µM: [6]
9.27 µM: [8]
57.1 µM: [9]
